Data from PubChem BioAssay AID328 (DTP/NCI, 2004).
“And” between values parts separate entries of the source, which are not always exact repeats. Equal values may be shown once. Toxic doses and inconclusive results are not listed.

Tested on: BDF1 mice, P388 leukemia ip, median survival T/C
Experiment: NCI In Vivo Anticancer Drug Screen. Data for tumor model P388 Leukemia (intraperitoneal) in B6D2F1 (BDF1) mice
Details: endpoint: median survival time, higher = longer survival
Outline: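 Reported as T/C, where T is the survival measurement in dosed animals and C the same measurement in vehicle controls.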

[1] = dose: 12.5 mg/kg/injection, schedule: Q01DX009 (ip), vehicle: saline with Tween-80
[2] = dose: 25.0 mg/kg/injection, schedule: Q01DX009 (ip), vehicle: saline with Tween-80
[3] = dose: 50.0 mg/kg/injection, schedule: Q01DX009 (ip), vehicle: saline with Tween-80
[4] = dose: 100.0 mg/kg/injection, schedule: Q04DX003 (ip), vehicle: saline with Tween-80
[5] = dose: 200.0 mg/kg/injection, schedule: Q04DX003 (ip), vehicle: saline with Tween-80
[6] = dose: 400.0 mg/kg/injection, schedule: Q04DX003 (ip), vehicle: saline with Tween-80
[7] = dose: 100.0 mg/kg/injection, schedule: Q04DX003 (ip), vehicle: Klucel (hydroxypropylcellulose) (HPC)
[8] = dose: 200.0 mg/kg/injection, schedule: Q04DX003 (ip), vehicle: Klucel (hydroxypropylcellulose) (HPC)
[9] = dose: 400.0 mg/kg/injection, schedule: Q04DX003 (ip), vehicle: Klucel (hydroxypropylcellulose) (HPC)

COC(CNC(=O)Nc1cccnc1)[CH2][Hg][Cl] (stereo not given)
T/C [1]: 90 % of control | T/C [2]: 104 % of control | T/C [3]: 100 % of control

COc1cc(/C=N/NC(=O)c2ccccc2)cc(OC)c1OC
T/C (dose: 100.0 mg/kg/injection, schedule: Q01DX009 (ip), vehicle: saline with Tween-80): 95 % of control | T/C [4]: 109 % of control | T/C (dose: 200.0 mg/kg/injection, schedule: Q01DX009 (ip), vehicle: saline with Tween-80): 100 % of control | T/C [5]: 104 % of control | T/C (dose: 400.0 mg/kg/injection, schedule: Q01DX009 (ip), vehicle: saline with Tween-80): 95 % of control | T/C [6]: 90 % of control

CC1(C)C2CC3C(=CCCC3(Cl)C#N)C1C2 (stereo not given)
T/C [7]: 100 % of control | T/C [8]: 95 % of control | T/C [9]: 95 % of control

Nc1nnc[se]1
T/C [1]: 116 % of control | T/C (dose: 12.5 mg/kg/injection, schedule: Q01DX009 (ip), vehicle: saline): 96 % of control | T/C [2]: 151 % of control | T/C (dose: 25.0 mg/kg/injection, schedule: Q01DX009 (ip), vehicle: saline): 122 % of control | T/C [3]: 164 % of control and 178 % of control

CCc1oc(=O)c(Cc2c(OC(C)=O)cc(OC(C)=O)c3c2OC(c2ccccc2)CC3=O)c(OC(C)=O)c1C (stereo not given)
T/C (dose: 1.0 mg/kg/injection, schedule: Q01DX009 (ip), vehicle: Klucel (hydroxypropylcellulose) (HPC)): 99 % of control | T/C (dose: 2.0 mg/kg/injection, schedule: Q01DX009 (ip), vehicle: Klucel (hydroxypropylcellulose) (HPC)): 92 % of control | T/C (dose: 4.0 mg/kg/injection, schedule: Q01DX009 (ip), vehicle: Klucel (hydroxypropylcellulose) (HPC)): 93 % of control | T/C (dose: 8.0 mg/kg/injection, schedule: Q01DX009 (ip), vehicle: Klucel (hydroxypropylcellulose) (HPC)): 92 % of control

Cc1ccc(NS(=O)(=O)c2ccccc2)cc1
T/C [4]: 100 % of control | T/C [5]: 100 % of control | T/C [6]: 110 % of control

CCCCCCCCCCCCOc1ccc(C=O)cc1OC
T/C (dose: 100.0 mg/kg/injection, schedule: Q01DX001 (ip), vehicle: Klucel (hydroxypropylcellulose) (HPC)): 100 % of control | T/C (dose: 200.0 mg/kg/injection, schedule: Q01DX001 (ip), vehicle: Klucel (hydroxypropylcellulose) (HPC)): 90 % of control | T/C (dose: 400.0 mg/kg/injection, schedule: Q01DX001 (ip), vehicle: Klucel (hydroxypropylcellulose) (HPC)): 100 % of control

Brc1cnn2c1NCC2
T/C (dose: 12.5 mg/kg/injection, schedule: Q01DX009 (ip), vehicle: water): 100 % of control | T/C (dose: 25.0 mg/kg/injection, schedule: Q01DX009 (ip), vehicle: water): 93 % of control | T/C (dose: 25.0 mg/kg/injection, schedule: Q04DX003 (ip), vehicle: water): 109 % of control and 114 % of control | T/C (dose: 50.0 mg/kg/injection, schedule: Q01DX009 (ip), vehicle: water): 98 % of control | T/C (dose: 50.0 mg/kg/injection, schedule: Q04DX003 (ip), vehicle: water): 95 % of control and 118 % of control | T/C (dose: 100.0 mg/kg/injection, schedule: Q01DX009 (ip), vehicle: water): 97 % of control | T/C (dose: 100.0 mg/kg/injection, schedule: Q04DX003 (ip), vehicle: water): 95 % of control and 114 % of control | T/C (dose: 200.0 mg/kg/injection, schedule: Q01DX009 (ip), vehicle: water): 93 % of control | T/C (dose: 200.0 mg/kg/injection, schedule: Q04DX003 (ip), vehicle: water): 93 % of control

c1ccc(C/C(N=Nc2ccccc2)=N\Nc2ccccc2)cc1
T/C (dose: 50.0 mg/kg/injection, schedule: Q01DX009 (ip), vehicle: Klucel (hydroxypropylcellulose) (HPC)): 110 % of control | T/C (dose: 100.0 mg/kg/injection, schedule: Q01DX009 (ip), vehicle: Klucel (hydroxypropylcellulose) (HPC)): 110 % of control | T/C (dose: 200.0 mg/kg/injection, schedule: Q01DX009 (ip), vehicle: Klucel (hydroxypropylcellulose) (HPC)): 100 % of control

CCN(CC)S(=O)(=O)c1ccc(C(=O)O)cc1
T/C [7]: 100 % of control | T/C [8]: 104 % of control | T/C [9]: 100 % of control

Clc1nn2nnnc2c2ccccc12
T/C (dose: 10.0 mg/kg/injection, schedule: Q01DX009 (ip), vehicle: saline with Tween-80): 102 % of control | T/C (dose: 20.0 mg/kg/injection, schedule: Q01DX009 (ip), vehicle: saline with Tween-80): 122 % of control | T/C (dose: 37.5 mg/kg/injection, schedule: Q01DX009 (ip), vehicle: saline with Tween-80): 91 % of control
